From patent EP0581652A1, “Pradimicins T1 and T2 and 11-0-dexylosylpradimicin T1, new members of the pradimicin family of antibiotics” (priority 1992, dated 1994) come the findings set out here.

The test system of series [1] is Aspergillus fumigatus IAM 2034. Description: In vitro antifungal activity, agar dilution method (MIC). Particulars: yeast morphology agar + 1/15M phosphate buffer (pH 7.0), 10^6 cells/ml, 28°C, 40 hrs. In kind it is cell-based.
For series [2], the system named is Trichophyton mentagrophytes 4329. The description is as above. In kind it is cell-based. Particulars: yeast morphology agar + 1/15M phosphate buffer (pH 7.0), 10^7 cells/ml, 28°C, 60 hrs.
In series [3] the test system is Candida albicans A9540. The series can be described thus: In vivo efficacy against systemic infection in mice. The note with it: male ICR mice; C. albicans A9540 systemic infection; single intravenous dose immediately after challenge; survival rate 20 days after infection. As to the method:
(§1) Pradimicins T1 and T2 were evaluated for in vivo efficacy against a Candida albicans A9540 systemic infection in male ICR mice (20-24 g body weight) as described by Oki etal. in water-soluble pradimicin derivatives, synthesis and antifungal evaluation of N,N,-dimethyl pradimicins, J. Antibiotics 43: 1230-1235, 1990. Five mice at each dose level were challenged intravenously with ten times the 50% lethal dose of the pathogen suspended in saline. Antibiotics were intravenously administered once immediately after the fungal challenge. Infection control animals (n=10) died from 7 to 12 days. The 50% protective dose (PD50) was calculated from the survival rate 20 days after the fungal infection. The acute toxicity of pradimicins T1 and T2 was determined in mice after a single intravenous dose.

For series [4], the system named is Cryptococcus neoformans D49. The series can be described thus: In vitro antifungal activity, agar dilution method (MIC). The note with it: yeast morphology agar + 1/15M phosphate buffer (pH 7.0), 10^6 cells/ml, 28°C, 40 hrs. Type of series: cell-based. On the technique in general: Agar dilution tests growth on a series of plates holding different concentrations.
Series [5] deals with Candida albicans 83-2-14 (Juntendo). The series is described as above. The note with it: yeast morphology agar + 1/15M phosphate buffer (pH 7.0), 10^6 cells/ml, 28°C, 40 hrs. In kind it is cell-based.
Series [6] relates to Candida albicans A9540. The series is described as above. In kind it is cell-based. Particulars: yeast morphology agar + 1/15M phosphate buffer (pH 7.0), 10^6 cells/ml, 28°C, 40 hrs.
The subject of series [7] is Cryptococcus neoformans IAM 4514. Described as above. Type of series: cell-based. Particulars: yeast morphology agar + 1/15M phosphate buffer (pH 7.0), 10^6 cells/ml, 28°C, 40 hrs.
The nature of series [8]: Acute toxicity in mice after a single intravenous dose. In kind it is in vivo. As to the method: as §1
Series [9] deals with Saccharomyces cerevisiae ATCC 9763. The series can be described thus: In vitro antifungal activity, agar dilution method (MIC). The note with it: yeast morphology agar + 1/15M phosphate buffer (pH 7.0), 10^6 cells/ml, 28°C, 40 hrs. In kind it is cell-based.
In series [10] the test system is Candida albicans ATCC 32354 (B311). Described as above. In kind it is cell-based. Particulars: yeast morphology agar + 1/15M phosphate buffer (pH 7.0), 10^6 cells/ml, 28°C, 40 hrs.

Usually LD50 stands for the dose expected to kill half of the subjects tested.

For the substance “11-O-dexylosylpradimicin T1 [11-O-Dexylosyl-pradimicin T1]”, the MIC in series [1] is 25 μ g/ml; in [2], 12.5 μ g/ml.
Turning to Amphotericin B, the PD50 in the series on Candida albicans A9540 [3] is 0.2 mg/kg. In addition, the MIC came to 0.4 µg/mL in series [4]; 0.8 μ g/ml in series [1]; 0.4 µg/mL in series [5]; 0.4 µg/mL in the series on Candida albicans A9540 [6]; 0.4 µg/mL in [7]; 0.4 µg/mL in series [9]. Further, the figures for the MIC in series [2] and in series [10] were 0.8 μ g/ml and 0.4 µg/mL, respectively. For the same substance, the LD50 in [8] was found to be 4.5 mg/kg.
As for Pradimicin T1, the MIC in series [1] and in [2] was 6.3 μ g/ml throughout.
With Pradimicin T2, the figures for the MIC in [1] and in [2] were over 100 μ g/ml and 50 μ g/ml, respectively.
